Measured values published in patent US9663495B2 (YUHAN CORPORATION, priority 2013, dated 2017).

Assays:
GPR119 [1] = target: T1, GPR119 (Homo sapiens, UniProt Q8TDV5); experiment: cAMP Accumulation Assay (GPR119 CRE-bla CHO-K1 cells, LiveBLAzer-FRET B/G); assay type: cell-based; settings: (Emax of the test compound/Emax of MBX-2982)x100, 5 hours incubation
T1 construct: host or cells: CHO-K1 (GPR119 CRE-bla, doxycycline-induced)
T1 sequence (Q8TDV5 1-335): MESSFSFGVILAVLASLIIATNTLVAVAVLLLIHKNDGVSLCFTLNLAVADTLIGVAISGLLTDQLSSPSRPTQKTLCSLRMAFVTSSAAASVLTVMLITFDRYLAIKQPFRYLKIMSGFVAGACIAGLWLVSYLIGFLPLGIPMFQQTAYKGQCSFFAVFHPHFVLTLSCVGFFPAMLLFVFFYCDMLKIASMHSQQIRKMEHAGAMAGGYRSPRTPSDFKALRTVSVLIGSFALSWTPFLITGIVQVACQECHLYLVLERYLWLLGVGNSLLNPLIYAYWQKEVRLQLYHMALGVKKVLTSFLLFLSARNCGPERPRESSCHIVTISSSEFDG

GPR119 [2] = target: T1, GPR119; experiment: as above; assay type: cell-based; settings: for EC50: 5 hours incubation; for Emax (Fold): maximum activity, response ratio versus non-treated control group
Description: 32 μl of an assay medium (DMEM supplemented with GlutaMax™ 99%, dialyzed FBS 1%, non-essential amino acid 1 mM, HEPES 25 mM, penicillin 100 U/ml, and streptomycin 100 μg/ml) was added to each well of a 384 black well plate and then the GPR119 CRE-bla CHO-K1 cells (Invitrogen) were seeded in 1×10^4 cells per well. Doxycycline was dissolved in the assay medium in the concentration of 1 μg/ml. The resulting solution (4 μl) was added to each well, which was then incubated in a 5% CO 2 incubator at 37° C. for about 20 to 24 hours. Each test compounds were diluted with the assay medium to prepare 10 samples, which have concentrations ranging from […], respectively. Each samples (8 μl) was added to each well, which was then incubated in a 5% CO2 incubator at 37° C. for 5 hours. In case of the control group, the well was treated with a solution (8 μl) prepared by diluting dimethyl sulfoxide (DMSO) in the assay medium to 1%. The substrate mixture (8 μl) was added to each well, which was then left under darkness at room temperature for 2 hours. The substrate mixture contains the followings: 1 mM LiveBLAzer™-FRET B/G(CCF4-AM) substrate 6 μl, solution B 60 μl, solution C 904 μl, and solution D 30 μl.
Fluorescence intensity was determined under the wavelength conditions of 400 nm/465 nm (excitation/emission) for the blue channel and 400 nm/535 nm (excitation/emission) for the green channel, with the fluorescence microplate reader (SpectraFluor Plus. TECAN). The net activity of each well was calculated by subtracting the average value of the cell-free control group from the value of the unstimulated (i.e., non-treated) control group or the stimulated (i.e., test compound-treated) group at each wavelength. MBX-2982 (Metabolex) was used as a control drug. The response ratio was calculated by dividing the net signal ratio (465 nm/535 nm) of the control drug or the test compound by the net signal ratio (465 nm/535 nm) of the non-treated control group. The relative ratio (R.R) was calculated by dividing the maximum activity [Emax (fold)] of the test compound (i.e., % activity in comparison with the background) by the maximum activity [Emax (fold)] of the control drug (MBX-2982) [Emax (% RR)=(Emax of the test compound/Emax of MBX-2982)×100]. EC50 (half maximal effective concentration) was calculated using the software for statistical analysis “Prism 5.0 (GraphPad)”, based on the values obtained according to concentrations of the test compounds.

| Emax (% RR) (GPR119 [1]) | EC50 (GPR119 [2]) | Emax (Fold) (GPR119 [2]) | SMILES |
| --- | --- | --- | --- |
| 124.6 % RR | 4.5 nM | 3.6 Fold | CCOC(=O)n1ncn(-c2ccc(-c3cnc(N4CCN(c5ncc(CC)cn5)C[C@@H]4C)c(C#N)c3)cc2F)c1=O [Example 24, (S)-ethyl 4-(4-(5-cyano-6-(4-(5-ethylpyrimidin-2-yl)-2-methylpiperazin-1-yl)pyridin-3-yl)-2-fluorophenyl)-5-oxo-4,5-dihydro-1H-1,2,4-triazol-1-carboxylate] |
| 116.0 % RR | 2.6 nM | 3.3 Fold | CCc1cnc(N2CCN(c3ncc(-c4ccc(-n5cnn(CC(C)(C)C#N)c5=O)c(F)c4)cc3C#N)[C@@H](C)C2)nc1 [Example 25, (S)-5-(4-(1-(2-cyano-2-methylpropyl)-5-oxo-1H-1,2,4-triazol-4(5H)-yl)-3-fluorophenyl)-2-(4-(5-ethylpyrimidin-2-yl)-2-methylpiperazin-1-yl)nicotinonitrile] |
| 112.5 % RR | 20 nM | 3.4 Fold | CCc1cnc(N2CCN(c3ncc(-c4ccc(-n5cnn(CCNC(C)=O)c5=O)c(F)c4)cc3C#N)[C@@H](C)C2)nc1 [Example 26, (S)—N-(2-(4-(4-(5-cyano-6-(4-(5-ethylpyrimidin-2-yl)-2-methylpiperazin-1-yl)pyridin-3-yl)-2-fluorophenyl)-5-oxo-4,5-dihydro-1H-1,2,4-triazol-1-yl)ethyl)acetamide] |
| 149.4 % RR | 3.1 nM | 4.0 Fold | CCc1cnc(N2CCN(c3ncc(-c4ccc(-n5cnn(CN6CCN(C)CC6)c5=O)c(F)c4)cc3C#N)[C@@H](C)C2)nc1 [Example 27, (S)-2-(4-(5-ethylpyrimidin-2-yl)-2-methylpiperazin-1-yl)-5-(3-fluoro-4-(1-((4-methylpiperazin-1-yl)methyl)-5-oxo-1H-1,2,4-triazol-4(5H)-yl)phenyl)nicotinonitrile] |
| 145.6 % RR | 4 nM | 3.9 Fold | CCc1cnc(N2CCN(c3ncc(-c4ccc(-n5cnn(CN6CCCC6)c5=O)c(F)c4)cc3C#N)[C@@H](C)C2)nc1 [Example 28, (S)-2-(4-(5-ethylpyrimidin-2-yl)-2-methylpiperazin-1-yl)-5-(3-fluoro-4-(5-oxo-1-(pyrrolidin-1-ylmethyl)-1H-1,2,4-triazol-4(5H)-yl)phenyl)nicotinonitrile] |
| 110.1 % RR | 1.5 nM | 3.1 Fold | CCc1cnc(N2CCN(c3ncc(-c4cc(F)c(-n5cnn(C)c5=O)cc4F)cc3C#N)[C@@H](C)C2)nc1 [Example 29, (S)-5-(2,5-difluoro-4-(1-methyl-5-oxo-1H-1,2,4-triazol-4(5H)-yl)phenyl)-2-(4-(5-ethylpyrimidin-2-yl)-2-methylpiperazin-1-yl)nicotinonitrile] |
| 130.9 % RR | 1.5 nM | 3.8 Fold | CCc1cnc(N2CCN(c3ncc(-c4ccc(-n5cnn(C(C)C)c5=O)c(F)c4)cc3C#N)CC2)nc1 [Example 30, 2-(4-(5-ethylpyrimidin-2-yl)piperazin-1-yl)-5-(3-fluoro-4-(1-isopropyl-5-oxo-1H-1,2,4-triazol-4(5H)-yl)phenyl)nicotinonitrile] |
| 148.7 % RR | 10 nM | 3.4 Fold | CCc1cnc(N2CCN(c3ncc(-c4ccc(-n5cnn(CCOC)c5=O)c(F)c4)cc3C#N)CC2)nc1 [Example 31, 5-(4-(1-(2-methoxyethyl)-5-oxo-1H-1,2,4-triazol-4(5H)-yl)-3-fluorophenyl)-2-(4-(5-ethylpyrimidin-2-yl)piperazin-1-yl)nicotinonitrile] |
| 118.1 % RR | 13.2 nM | 4.3 Fold | CCc1cnc(N2CCN(c3ncc(-c4ccc(-n5cnn(C[C@H](O)CO)c5=O)c(F)c4)cc3C#N)CC2)nc1 [Example 36, (S)-5-(4-(1-(2,3-dihydroxypropyl)-5-oxo-1H-1,2,4-triazol-4(5H)-yl)-3-fluorophenyl)-2-(4-(5-ethylpyrimidin-2-yl)piperazin-1-yl)nicotinonitrile] |
| 133.6 % RR | 3.8 nM | 3.9 Fold | CCc1cnc(N2CCN(c3ncc(-c4ccc(-n5cnn(C)c5=O)cc4)cc3C#N)CC2)nc1 [Example 39, 2-(4-(5-ethylpyrimidin-2-yl)piperazin-1-yl)-5-(4-(1-methyl-5-oxo-1H-1,2,4-triazol-4(5H)-yl)phenyl)nicotinonitrile] |
| 109.3 % RR | 21 nM | 3.0 Fold | CCc1cnc(N2CCN(c3ncc(-c4ccc(-n5cnn([C@H]6CCNC6)c5=O)cc4)cc3C#N)CC2)nc1 [Example 42, (S)-2-(4-(5-ethylpyrimidin-2-yl)piperazin-1-yl)-5-(4-(5-oxo-1-(pyrrolidin-3-yl)-1H-1,2,4-triazol-4(5H)-yl)phenyl)nicotinonitrile] |
| 144.7 % RR | 7.3 nM | 4.2 Fold | CC(C)c1nc(N2CCN(c3ncc(-c4ccc(-n5cnn(C)c5=O)c(F)c4)cc3C#N)CC2)no1 [Example 45, 5-(3-fluoro-4-(1-methyl-5-oxo-1H-1,2,4-triazol-4(5H)-yl)phenyl)-2-(4-(5-isopropyl-1,2,4-oxadiazol-3-yl)piperazin-1-yl)nicotinonitrile] |
| 133.3 % RR | 4.2 nM | 3.9 Fold | CC(C)c1nc(N2CCN(c3ncc(-c4ccc(-n5cnn(C(C)C)c5=O)c(F)c4)cc3C#N)CC2)no1 [Example 46, 5-(3-fluoro-4-(1-isopropyl-5-oxo-1H-1,2,4-triazol-4(5H)-yl)phenyl)-2-(4-(5-isopropyl-1,2,4-oxadiazol-3-yl)piperazin-1-yl)nicotinonitrile] |
| 109.1 % RR | 16 nM | 3.0 Fold | COCn1ncn(-c2ccc(-c3cnc(N4CCN(c5noc(C(C)C)n5)CC4)c(C#N)c3)cc2)c1=O [Example 48, 2-(4-(5-isopropyl-1,2,4-oxadiazol-3-yl)piperazin-1-yl)-5-(4-(1-(methoxymethyl)-5-oxo-1H-1,2,4-triazol-4(5H)-yl)phenyl)nicotinonitrile] |
| 144.7 % RR | 7.3 nM | 4.2 Fold | CCCn1ncn(-c2ccc(-c3cnc(N4CCN(c5noc(C(C)C)n5)CC4)c(C#N)c3)cc2F)c1=O.Cl [Example 49, 5-(3-fluoro-4-(5-oxo-1-propyl-1H-1,2,4-triazol-4(5H)-yl)phenyl)-2-(4-(5-isopropyl-1,2,4-oxadiazol-3-yl)piperazin-1-yl)nicotinonitrile hydrochloride] |
| 105.4 % RR | 16 nM | 2.6 Fold | CC(C)n1ncn(-c2ccc(-c3cnc(N4CCC(N(C)C(=O)OC(C)(C)C)CC4)c(C#N)c3)cc2F)c1=O [Example 58, tert-butyl 1-(3-cyano-5-(3-fluoro-4-(1-isopropyl-5-oxo-1H-1,2,4-triazol-4(5H)-yl)phenyl)pyridin-2-yl)piperidin-4-yl(methyl)carbamate] |
| 100.8 % RR | 31 nM | 2.5 Fold | C=C(C)OC(=O)N(C)C1CCN(c2ncc(-c3ccc(-n4cnn(C(C)C)c4=O)c(F)c3)cc2C#N)CC1 [Example 59, prop-1-en-2-yl 1-(3-cyano-5-(3-fluoro-4-(1-isopropyl-5-oxo-1H-1,2,4-triazol-4(5H)-yl)phenyl)pyridin-2-yl)piperidin-4-yl(methyl)carbamate] |
